Structures are written as SMILES.

From the METLIN SMRT retention time set (Domingo-Almenara et al. 2019) come the findings set out here.

The series is described as follows: gradient 5% acetonitrile 3 min, to 50% in 2 min, to 85% in 15 min, held 3 min, 100 µL/min. Particulars: column: Zorbax Extend-C18 2.1 x 50 mm; eluents: water / acetonitrile, 0.1% formic acid. In short, it runs like this: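 Pure standards were analyzed in mixtures of ~100 molecules using HPLC coupled to a quadrupole time-of-flight mass spectrometer, in both positive and negative ionization mode. Separation used a Zorbax Extend-C18 column (2.1 × 50 mm, 1.8 μm) at 100 μL/min, with water and acetonitrile each containing 0.1% formic acid. Dead and dwell volumes were 40 μL and 900 μL, and data were collected over 3 months. Retention time was read from computationally picked adduct peaks, each inspected manually.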
For `Cc1cccc(N2CCN(S(=O)(=O)c3cc(-c4nnc(C5CCC5)o4)co3)CC2)c1`, the RP-LC retention time amounted to 1110 s. Next, `Cc1ccc(S(=O)(=O)c2cnc(N3CCN(c4ccccn4)CC3)nc2N)cc1`: 1160 s; `CC(O)CNC(=O)C1CCN(c2ccc(Sc3ccc(C(C)C)cc3)nn2)CC1` (centres undefined): 704 s; `Cc1nc(N2CCN(Cc3ccc4c(c3)OCO4)CC2)nc2c1C(=O)CC(C)C2` (centres undefined): 684 s. In turn, `COC(=O)c1cc2c(=O)n(-c3nc4ccc(OC)cc4s3)ccc2nc1C` registered an RP-LC retention time of 1160 s. In turn, `Cc1c(C2CCN(C(=O)c3cc4ccccc4[nH]3)CC2)noc1N` had an RP-LC retention time of 729 s.

The compound `CCc1noc(NC(C)=O)c1-c1ccc(C)c(S(=O)(=O)N2CCCC2)c1` showed an RP-LC retention time of 801 s. Next, `CC1CCc2nn(CC(=O)NCCCN(Cc3ccccc3)C(C)C)cc2C1` (centres undefined): 592 s; `COCc1noc([C@@H]2CC(F)(F)CN2C(=O)c2cc(C)oc2C)n1`: 835 s.

`CS(=O)(=O)c1cccc(-c2nnc(NC(=O)c3ccc(Cl)s3)o2)c1` returned an RP-LC retention time of 711 s. Next, `Cc1ccc(NC(=O)COc2cc(C)nc(N3CCN(c4ccccc4)CC3)n2)c(C)c1`: 914 s; `Cc1nn(-c2nc(-c3ccc(F)cc3)cs2)c(C)c1CC(=O)Nc1ccc(Cl)cc1`: 1190 s; `CCOC(=O)c1ccc(NC2=NS(=O)(=O)C(c3ccc(OC)cc3)=C2C)cc1`: 928 s.

With `Cc1c(-c2cccc(NS(=O)(=O)c3ccc(Cl)cc3)c2)nc2ncccn12`, the RP-LC retention time amounted to 627 s.

With `Cc1cc(C(=O)N2CCCCC2)c2c(=O)n(Cc3nc(-c4cccs4)oc3C)c(=O)n(C)c2n1`, the RP-LC retention time was determined as 955 s. Consider `CC(C)(C)C(O)CCNC(=O)Nc1ccc2c(c1)OCO2` (centres undefined), for which the RP-LC retention time is 690 s. `COc1cc(OC)cc(C(=O)NC(C)C(=O)Nc2nc3ccccc3[nH]2)c1` (centres undefined): the RP-LC retention time is 656 s. On to `Cc1cc(Cl)ccc1NC(=O)C1CC(=O)N(c2ccc3c(c2)CCN3C(=O)C2CC2)C1` (centres undefined), for which the RP-LC retention time worked out at 843 s. `CNC(=O)c1c(C)nn(-c2ccccc2)c1-n1cccc1` showed an RP-LC retention time of 761 s.

As to `O=C1c2ccccc2C(=O)c2c1ccc(C(=O)N1CCN(c3ccccn3)CC1)c2NCCO`, the RP-LC retention time was found to be 616 s.

`Cc1cc(C)c(S(=O)(=O)N2CCC(C)(C(=O)NCc3ccc4c(c3)OCO4)CC2)cc1C`: the RP-LC retention time came to 1010 s. `CC(C)Cn1cc(S(=O)(=O)Nc2cccc(F)c2)c2cccnc21`: the RP-LC retention time amounted to 912 s. `O=C(NCc1ccc(Br)cc1)C1CCN(C(=O)c2cc(-c3ccncc3)n[nH]2)CC1` displayed an RP-LC retention time of 618 s. Compound `Cc1ccc(CNC(=O)N2CCCC2c2cc(C)on2)cc1` (centres undefined) gave an RP-LC retention time of 798 s. Compound `O=c1n(Cc2cccc(F)c2)nc2ccc(S(=O)(=O)N3CCCC3)cn12` had an RP-LC retention time of 856 s. `COc1cccc(CNC(=O)Nc2cc3c(cc2N2CCCC2)n(C)c(=O)n3C)c1` yielded an RP-LC retention time of 600 s. `O=C(c1ccc2ccnc(N3CCN(c4ccc(Cl)cc4)CC3)c2c1)N1CCC2(CC1)OCCO2`: the RP-LC retention time amounted to 791 s. Compound `COC1C(=O)N(CC2CC2)C12CCN(S(=O)(=O)c1cccc3cccnc13)CC2` (centres undefined) displayed an RP-LC retention time of 790 s.

`Cc1ccc(Cl)cc1N1CCN(c2ccc3cc(S(=O)(=O)N4CCOCC4)ccc3n2)CC1` came in with an RP-LC retention time of 1200 s. To `O=C(NC1CC1)C1CCCN(c2cnc3nccnc3c2)C1` (centres undefined) belongs 592 s; to `CCOC(=O)Cn1nc2oc(=O)c(CCN3CCN(c4ccccc4OC)CC3)c(C)c2c1C`, 726 s; to `CCCn1cc(S(=O)(=O)Nc2ccc(F)cc2)c2cccnc21`, 858 s. As for `CC1(C)COc2ccc(NC(=O)c3c(F)cccc3Cl)cc2NC1=O`, the RP-LC retention time was 810 s.

Turning to `O=C(CSCC(=O)c1ccccc1)c1ccccc1`, the RP-LC retention time was 880 s. To `O=C(Cn1cccc1-c1nc(-c2ccc(Cl)cc2)cs1)NCc1ccco1` belongs 1080 s; to `O=C(CCC(=O)N1Cc2cccn2-c2ccccc21)NCc1cccc(Cl)c1`, 957 s; to `COc1cc2c(cc1OC)CN(C(=O)c1cc(-c3ccc(F)cc3)c[nH]1)CC2`, 847 s.

`CN(Cc1ccco1)c1nc(-c2ccc(Cl)cc2)nc2ccccc12` came in with an RP-LC retention time of 858 s.

Compound `CC(C)Oc1ccc(-c2noc(CCn3nc(-c4ccc(F)cc4)ccc3=O)n2)cc1` came in with an RP-LC retention time of 1100 s.

For the compound `Cc1ccc(OCc2ccc(-c3nc(C#N)c(NCCN(C)C)o3)o2)cc1`, the RP-LC retention time was 709 s.

Take `CCn1c(=O)c2ccccc2n(Cc2nc(-c3ccccc3C)no2)c1=O`: the RP-LC retention time was 1070 s. Regarding `Cc1ccc(Cn2cccc2C(=O)C(=O)NCc2ccc(C)o2)cc1`, the RP-LC retention time is 1080 s. In turn, `Cc1nc(-c2csc(S(=O)(=O)N3CCCC(C(=O)Nc4cc(F)ccc4F)C3)c2)no1` (centres undefined) returned an RP-LC retention time of 996 s. The compound `CCCNc1cc(N2CCC(CCC(=O)NC3CCN(C(=O)OCC)CC3)CC2)ncn1` returned an RP-LC retention time of 627 s. In the case of `COc1cc(NC(=O)N2CCN(c3ccc(=O)n(-c4ccc(F)cc4)n3)CC2)cc(OC)c1OC`, the RP-LC retention time amounted to 723 s. In turn, `CSc1cccc(NC(=O)Cn2nc3n(c2=O)CCCC3)c1` came in with an RP-LC retention time of 669 s. On to `CC(=O)Nc1c(-c2ccccn2)nsc1C(=O)N1CCC(C)CC1`, for which the RP-LC retention time was 849 s. To `N#Cc1ccc(CN2C[C@@H]3C(=O)N(CCN4CCc5ccccc5C4)C(=O)[C@@H]3C2)cc1` belongs 618 s; to `COc1ccccc1NC(=O)NC1CCN(c2ccc(C)c(C)c2)C1=O` (centres undefined), 870 s. Turning to `Cc1ccc(NC(=O)N2CCC(CC(=O)N3CCCCC3)CC2)cc1Cl`, the RP-LC retention time was found to be 861 s.

As for `CCOC(=O)c1c(C)[nH]c(CCC(=O)NCCc2ccco2)c1C`, the RP-LC retention time is 788 s. To `Cc1noc(C)c1C1CCCN1C(=O)c1cccc(C#N)c1` (centres undefined) belongs 767 s; to `Cc1ccc(C)n1-c1nnc(N2CCC(C(=O)N3CCN(c4ccccn4)CC3)CC2)s1`, 634 s. `CCCN(C)c1nccnc1OC1CCN(C(=O)c2ccoc2)C1` (centres undefined) had an RP-LC retention time of 723 s.

`CCc1nnc2ccc(NC(=O)Nc3ccccc3C)cn12` had an RP-LC retention time of 691 s.

For `CS(=O)(=O)N1CC(n2cc(C(=O)NCC3CC3)nn2)C1`, the RP-LC retention time is 645 s. With `CS(=O)(=O)N1CCCN(C(=O)C2(c3ccccc3)CC2)c2ccccc21`, the RP-LC retention time is 761 s.

The compound `CCN1CCN(CCNC(=O)C2CCN(C(=O)c3ccc(-n4ccc5ccccc54)s3)CC2)CC1` had an RP-LC retention time of 597 s. For `Cc1ccc(NC(=O)Cc2c(C(=O)O)c(C)cn2C)c(C)c1`, the RP-LC retention time was 771 s. As to `COc1ccc(-c2noc(Cn3nc(-c4cccc(OC)c4)ccc3=O)n2)cc1`, the RP-LC retention time worked out at 974 s. `Cc1ccc2c(c1)C(C)(C)C(=O)N2CC(=O)NCc1ccc(F)cc1` yielded an RP-LC retention time of 915 s. `Cc1ccc(C)c(NC(=O)N(C)CCc2noc(COc3ccccc3)n2)c1` had an RP-LC retention time of 934 s. As to `Cc1ccc(NC(=O)C2CCN(S(=O)(=O)c3ccc4c(c3)sc(=O)n4C(C)C)CC2)cc1F`, the RP-LC retention time stood at 1050 s. Compound `CCOC(=O)c1noc2ncnc(NCc3ccc(C)cc3)c12` showed an RP-LC retention time of 936 s.

Consider `COc1ccc(CNS(=O)(=O)c2ccc(-c3c(C)noc3C)cc2)cc1`, for which the RP-LC retention time worked out at 886 s.

The compound `CCOc1cccc(-c2noc(Cn3ncn4nc(-c5ccccc5Cl)cc4c3=O)n2)c1` came in with an RP-LC retention time of 1250 s. Next, `CCOc1ccc(C(=O)Nc2cccn3nc(C(C)C)nc23)cc1`: 964 s; `Cc1nnc(N2CCCC(C(=O)NCc3ccccc3F)C2)c2nn(-c3ccc(Cl)cc3)c(C)c12` (centres undefined): 771 s. In turn, `Cc1cc(OCC(=O)NCc2ccc3c(c2)OCO3)nc(N2CCCCCC2)n1` came in with an RP-LC retention time of 594 s. As for `CCC1CCCCN1C(=O)Cc1c(C)nn(-c2nc(-c3ccc(C)cc3)cs2)c1C` (centres undefined), the RP-LC retention time was determined as 1380 s.

Consider `CC1CCc2[nH]nc(C(N)=O)c2C1` (centres undefined), for which the RP-LC retention time came out at 614 s. Turning to `CC(C)n1c(=O)sc2cc(S(=O)(=O)N3CCC(C(=O)NCCc4cccs4)CC3)ccc21`, the RP-LC retention time was 910 s. `O=C(Nc1ccc(F)c(F)c1)C1CCCN(S(=O)(=O)Cc2ccccc2)C1` (centres undefined) had an RP-LC retention time of 998 s. Consider `Cc1cc(N2CCCC2)n2nc(CN3CCN(c4ccccc4)CC3)nc2n1`, for which the RP-LC retention time was 600 s. Next, `O=C(NCc1ccc(F)cc1F)c1csc(C(=O)N2CCCC2)n1`: 795 s; `O=C(CC1CCCCC1)NC1CCN(C(=O)c2cc(-c3cccc(Cl)c3)n[nH]2)CC1`: 797 s; `Cc1cccc(NS(=O)(=O)c2cc3c(s2)CCN(C(=O)C2CCC2)C3)c1C`: 942 s.

As for `CCc1nnc(-c2ccc3ccn(CC(=O)NCc4ccccc4)c3c2)o1`, the RP-LC retention time came to 1300 s.

For `CC(C)=C1SC(=O)N(CC(=O)Nc2ccc(S(N)(=O)=O)cc2)C1=O`, the RP-LC retention time worked out at 672 s.
